This experiment has as its target T1, Solute carrier family 22 member 12 (Homo sapiens, UniProt Q96S37).
T1 sequence (Q96S37 whole entry): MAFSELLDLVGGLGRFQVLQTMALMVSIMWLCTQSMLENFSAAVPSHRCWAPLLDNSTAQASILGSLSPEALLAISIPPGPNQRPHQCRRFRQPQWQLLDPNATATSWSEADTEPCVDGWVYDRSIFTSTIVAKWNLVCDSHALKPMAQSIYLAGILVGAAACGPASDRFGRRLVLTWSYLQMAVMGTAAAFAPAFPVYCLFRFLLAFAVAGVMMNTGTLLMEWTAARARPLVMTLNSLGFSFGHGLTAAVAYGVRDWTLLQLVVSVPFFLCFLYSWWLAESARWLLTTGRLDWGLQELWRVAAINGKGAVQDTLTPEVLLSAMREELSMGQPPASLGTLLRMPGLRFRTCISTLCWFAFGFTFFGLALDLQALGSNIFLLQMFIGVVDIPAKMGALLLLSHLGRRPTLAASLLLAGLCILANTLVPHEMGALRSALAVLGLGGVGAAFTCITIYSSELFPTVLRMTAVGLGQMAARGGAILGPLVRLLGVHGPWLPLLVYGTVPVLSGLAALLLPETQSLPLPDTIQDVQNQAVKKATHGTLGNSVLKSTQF
In words: Inhibition of human URAT1 expressed in HEK293 cells assessed as reduction in [8-14C]uric acid uptake. Type of experiment: cell-based.
One may read the IC50 as the concentration that gives 50% inhibition. Take `O=S(=O)(CSc1nnc(Br)n1Cc1ccc(Br)c2ccccc12)Nc1ccc(C(F)(F)F)nc1`: the IC50 turned out to be 10.2 µM.

For the compound `O=S(=O)(CSc1nnc(Br)n1Cc1ccc(Br)c2ccccc12)Nc1ccc(Cl)nc1Cl`, the IC50 is 1.66 µM.

For the compound `O=S(=O)(CSc1nnc(Br)n1Cc1ccc(Br)c2ccccc12)Nc1ccc(F)nc1`, the IC50 worked out at 1.55 µM.

Consider `O=S(=O)(CSc1nnc(Br)n1Cc1ccc(Br)c2ccccc12)Nc1cccnc1Br`, for which the IC50 was found to be 0.28 µM.

On to `NS(=O)(=O)CSc1nnc(Br)n1Cc1ccc(Br)c2ccccc12`, for which the IC50 was determined as 365 µM.

Turning to `O=S(=O)(CSc1nnc(Br)n1Cc1ccc(Br)c2ccccc12)Nc1cccnc1Cl`, the IC50 came to 5.1 µM.

Turning to `O=C(CSc1nnc(Br)n1Cc1ccc(Br)c2ccccc12)NO`, the half-maximal inhibitory concentration (IC50) was 0.64 µM.

On to `O=S(=O)(CSc1nnc(Br)n1Cc1ccc(Br)c2ccccc12)Nc1ccc(Br)nc1Br`, for which the IC50 came out at 5.41 µM.

As to `O=S(=O)(CSc1nnc(Br)n1Cc1ccc(Br)c2ccccc12)Nc1cncc(C(F)(F)F)c1`, the IC50 turned out to be 6.38 µM.

With `O=S(=O)(CSc1nnc(Br)n1Cc1ccc(Br)c2ccccc12)Nc1ccccc1`, the half-inhibitory concentration (IC50) is 15.8 µM.

Turning to `O=S(=O)(CSc1nnc(Br)n1Cc1ccc(Br)c2ccccc12)Nc1cccnc1`, the concentration for half-maximal inhibition (IC50) came to 0.032 µM.

`O=S(=O)(CSc1nnc(Br)n1Cc1ccc(Br)c2ccccc12)Nc1cnccc1I`: the IC50 was 10.6 µM.

With `O=S(=O)(CSc1nnc(Br)n1Cc1ccc(Br)c2ccccc12)Nc1ccc(Br)nc1`, the IC50 was determined as 2.2 µM.

With `O=S(=O)(CSc1nnc(Br)n1Cc1ccc(Br)c2ccccc12)Nc1cc(Cl)cnc1Cl`, the IC50 was 2.79 µM.

Regarding `Brc1ccc(Cn2c(Br)nnc2SCc2nnn[nH]2)c2ccccc12`, the IC50 worked out at 3.24 µM.

Regarding `O=S(=O)(O)CSc1nnc(Br)n1Cc1ccc(Br)c2ccccc12`, the IC50 is 14.4 µM.

Consider `COc1ncccc1NS(=O)(=O)CSc1nnc(Br)n1Cc1ccc(Br)c2ccccc12`, for which the concentration for half-maximal inhibition (IC50) was 4.05 µM.

In the case of `O=S(=O)(CSc1nnc(Br)n1Cc1ccc(Br)c2ccccc12)Nc1ccc(Cl)nc1`, the IC50 was found to be 1.94 µM.

As to `Oc1c(Br)cc(CSc2nnc(Br)n2Cc2ccc(Br)c3ccccc23)cc1Br`, the half-maximal inhibitory concentration (IC50) stood at 119 µM.

(Values after ChEMBL document CHEMBL4371083, “Synthesis, biological evaluation and 3D-QSAR studies of 1,2,4-triazole-5-substituted carboxylic acid bioisosteres as uric acid transporter 1 (URAT1) inhibitors for the treatment of hyperuricemia associated with gout” (Bioorg Med Chem Lett, 2019).)
